For test [1], the species on record is Homo sapiens. As to the kind of experiment: Selectivity ratio of EC50 for TGR5 Y89A mutant (unknown origin) to EC50 for wild type TGR5 (unknown origin).
Test [2] deals with T1, G-protein coupled bile acid receptor 1 (Homo sapiens, UniProt Q8TDU6).
T1 sequence (Q8TDU6 whole entry): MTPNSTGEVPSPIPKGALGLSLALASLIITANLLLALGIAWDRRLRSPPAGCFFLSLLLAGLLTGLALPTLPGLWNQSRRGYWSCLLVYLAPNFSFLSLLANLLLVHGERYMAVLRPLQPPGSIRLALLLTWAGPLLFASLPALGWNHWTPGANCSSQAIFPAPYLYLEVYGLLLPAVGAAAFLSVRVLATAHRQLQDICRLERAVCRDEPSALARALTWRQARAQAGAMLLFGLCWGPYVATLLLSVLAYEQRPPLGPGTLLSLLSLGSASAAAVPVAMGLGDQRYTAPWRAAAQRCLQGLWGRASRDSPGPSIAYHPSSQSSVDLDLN
Put plainly: Agonist activity at wild type TGR5 (unknown origin).

The species entered for test [3] is Homo sapiens. As to the kind of experiment: Selectivity ratio of EC50 for TGR5 N93D mutant (unknown origin) to EC50 for wild type TGR5 (unknown origin).
The species named for test [4] is Homo sapiens. Put plainly: Selectivity ratio of EC50 for TGR5 S270A mutant (unknown origin) to EC50 for wild type TGR5 (unknown origin).
For test [5], the species on record is Homo sapiens. Put plainly: Selectivity ratio of EC50 for TGR5 Y89F mutant (unknown origin) to EC50 for wild type TGR5 (unknown origin).

As a reminder, the EC50 is the concentration at which the effect is half-maximal. A higher EC50 goes with lower potency in that assay. Take `CC[C@H]1[C@@H](O)[C@@H]2[C@H](CC[C@]3(C)[C@@H]([C@H](C)CCN)CC[C@@H]23)[C@@]2(C)CC[C@@H](O)C[C@@H]12`: the Ratio EC50 is more than 1000 in the test filed under Homo sapiens [1], more than 1000 in the test listed under Homo sapiens [3], more than 1000 in the test filed under Homo sapiens [4] and 1.7 in the test filed under Homo sapiens [5]. This molecule also gave an EC50 in test [2] of 1.32 µM.

The record behind these values is ChEMBL document CHEMBL3097990, “Probing the Binding Site of Bile Acids in TGR5” (ACS Med Chem Lett, 2013).
